Reference: patent publication US20250074876A1, “DIPHENOLIC COMPOUNDS AND PREPARATION METHODS THEREOF” (PURPANA (BEIJING) TECHNOLOGIES CO., LTD., priority 2022, published 2025)

How the values were obtained:
[1] = tested on: melanin cell; assay: B-2 Inhibition test of cell melanin synthesis (chromogenic method); type: cell-based; conditions: for inhibitory effect on cellular melanin synthesis (in words): at a lower concentration (no more than 0.10% g/m L); for inhibitory effect on cellular melanin synthesis compared with kojic acid: comparison with kojic acid
Method: According to cytotoxicity test data, an inhibition test of cell melanin synthesis was performed within the range allowed by cytotoxicity. The range allowed by cytotoxicity is a range of sample concentration corresponding to a relative cell viability more than 60% in the cytotoxicity test. The samples were grouped according to different concentrations, and a test index was melanin content, a test model was melanin cell, and a detection method is a chromogenic method. Cells at logarithmic growth phase were collected, and the cells were inoculated into 24-well plates at a cell density of 2×10^5 cells/well. After 24 h of incubation in the incubator (37° C., 5% CO2), according to the results of cytotoxicity, the drug was added according to the concentration requirements. The untreated cells were used as a blank control, and three parallel controls were set up in each group. After the drug added, the incubation was continued in the incubator (37° C., 5% CO2) for 48 h. The supernatant was discarded, 1 mL of 1 M NaOH containing 10% DMSO was added, and the plate was placed in a thermostatic oven for incubation at 60° C. for 1 h. After restoring to a room temperature, 200 μL mixed solution of each well was transferred to a 96-well plate, and 1 M NaOH containing 10% DMSO was used as a blank control. The absorbance value was read at 405 nm, and the inhibition rate of cellular melanin synthesis was calculated according to the following equation (5): […]

[2] = tested on: human melanoma cells (G361); assay: B-1 Cytotoxicity test (MTT, relative cell viability); type: cell-based; conditions: 24 h
Method: • a) Cell inoculation: human melanoma cells (G361) were inoculated into 96-well plates at a density of 1×10^4 cells/well, and the 96-well plates were placed in an incubator (37° C., 5% CO2) overnight for incubation. • b) Experimental grouping: the experiments were set up with a zeroing group, a control group, a positive control group, and a sample group. In the sample group, each sample was set up with different concentration gradients, and 3 replicate wells were set up under each concentration gradient. • c) Solution preparation: different concentrations of sample working solution were prepared according to the concentrations in Table 4. • d) Drug administration: a drug administration was performed until the cell plating rate in the 96-well plate reaches 40%-60%. In the control group, 200 μL of culture medium containing 10% PBS (Gibco) […] was added to each well; in the positive control group, 200 μL of culture medium containing 10% DMSO was added to each well; in the sample group, 200 μL of culture medium containing the corresponding concentration of sample was added to each well; in the zeroing group, no cell was inoculated and only 200 μL of cell culture medium was added. After the drug administration completed, the 96-well plates were placed in an incubator (37° C., 5% CO2) for incubation. • e) Detection: after incubation for 24 h, the supernatant was discarded, and MTT working solution (0.5 mg/mL) was added and incubated at 37° C. in the dark for 4 h. After incubation, the supernatant was discarded, and 100 μL DMSO was added into each well and the OD value was obtained at 490 nm. • f) Relative cell viability was calculated by the following equation (4): […]

Question: CC(c1ccc(O)cc1O)N1CCCC1=O (centres unmarked) [I-h] was tested. Which “inhibitory effect on cellular melanin synthesis (in words)” value (“inhibitory effect … (in words)” below) [1] did it give?
Answer: have an inhibitory effect on cellular melanin synthesis

Question: With CC(c1ccccc1)c1cc(C(C)c2ccccc2)c(O)cc1O (centres unmarked) [V-a] as the compound, how does the “inhibitory effect … (in words)” value [1] read?
Answer: have an inhibitory effect on cellular melanin synthesis

Question: What about the “inhibitory effect on cellular melanin synthesis compared with kojic acid” value [1] of the same compound?
Answer: superior to that of kojic acid

Question: For CC(c1cc(C(C)N2CCCC2=O)c(O)cc1O)N1CCCC1=O (centres unmarked) [V-c], which “inhibitory effect … (in words)” value [1] is on record?
Answer: have an inhibitory effect on cellular melanin synthesis

Question: For CC(c1ccc(O)cc1O)N1CCCCCC1=O (centres unmarked) [I-g], which “inhibitory effect … (in words)” value [1] is on record?
Answer: have an inhibitory effect on cellular melanin synthesis

Question: And the Relative cell viability ([2]; human, 0.007813 % (g/mL))?
Answer: 117.8165%

Question: What about the Relative cell viability ([2]; human, 0.015625 % (g/mL)) of the same compound?
Answer: 120.6987%

Question: What about the Relative cell viability ([2]; human, 0.03125 % (g/mL)) of the same compound?
Answer: 107.8966%

Question: What about the Relative cell viability ([2]; human, 0.125 % (g/mL)) of the same compound?
Answer: 113.8122%

Question: And the Relative cell viability ([2]; human, 0.25 % (g/mL))?
Answer: 120.9409%

Question: What about the Relative cell viability ([2]; human, 0.5 % (g/mL)) of the same compound?
Answer: 107.9874%

Question: Which results are given for CC(c1ccc(O)cc1O)N1CCCCC1=O (centres unmarked) [I-a]?
Answer: inhibitory effect on cellular melanin synthesis (in words) [1]: have an inhibitory effect on cellular melanin synthesis; inhibitory effect on cellular melanin synthesis compared with kojic acid [1]: superior to that of kojic acid

Question: How did the Relative cell viability ([2]; G361 cells, MTT, sample concentration 0.007813 % (g/mL)) turn out when CC(c1ccccc1)c1ccc(O)cc1O (centres unmarked) [control group, phenylethyl resorcinol, reference compound] was run?
Answer: 106.32%

Question: What about the Relative cell viability ([2]; G361 cells, MTT, sample concentration 0.015625 % (g/mL)) of the same compound?
Answer: 114.68%

Question: And the Relative cell viability ([2]; G361 cells, MTT, sample concentration 0.03125 % (g/mL))?
Answer: 101.15%

Question: What about the Relative cell viability ([2]; G361 cells, MTT, sample concentration 0.125 % (g/mL)) of the same compound?
Answer: 100.10%

Question: And the Relative cell viability ([2]; G361 cells, MTT, sample concentration 0.25 % (g/mL))?
Answer: 106.07%

Question: And the Relative cell viability ([2]; G361 cells, MTT, sample concentration 0.5 % (g/mL))?
Answer: 96.77%

Question: For CCC(c1ccc(O)cc1O)N1CCCC1=O (centres unmarked) [I-d], which “inhibitory effect … (in words)” value [1] is on record?
Answer: have an inhibitory effect on cellular melanin synthesis

Question: What about the “inhibitory effect on cellular melanin synthesis compared with kojic acid” value [1] of the same compound?
Answer: superior to that of kojic acid

Question: CCCC(c1ccc(O)cc1O)N1CCCC1=O (centres unmarked) [I-f] was tested. Which “inhibitory effect … (in words)” value [1] did it give?
Answer: have an inhibitory effect on cellular melanin synthesis

Question: How did the “inhibitory effect … (in words)” value [1] turn out when CCCC(c1ccc(O)cc1O)N1CCCCC1=O (centres unmarked) [I-e] was run?
Answer: have an inhibitory effect on cellular melanin synthesis
